Measured values from the supplement of paper PMC11451515.

Key:
Experiment in all cases: AUC of viability dose-response curve (% viability x log10 dose units); higher = less sensitive
Settings in all cases: 48 h
P12-Ichikawa = system: P12-Ichikawa
Outline: (§1)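 Leukemia cells adapted to each medium (500 or 1000 cells/well, 1536-well plates) were exposed to library compounds in DMSO for 48 h at 37°C at 11 threefold doses, 47 μM to 0.79 nM. Luminescence by CellTiter-Glo One was normalised per plate to DMSO and cell-free wells, then fitted with a four-parameter log-logistic curve on log10 dose. Curves above full viability were scaled and quality-control failures removed before area under the curve was integrated by trapezoidal rule.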

SEM cells = system: SEM cells
Outline: as §1

NOMO1 = system: NOMO1
Outline: as §1

[1] = RPMI 5 mM glucose + 10% dialyzed FBS

| SMILES | AUC of viability dose-response curve (P12-Ichikawa; HPLM + 10% dialyzed FBS) | AUC of viability dose-response curve (P12-Ichikawa; RPMI 5 mM glucose + 10% FBS) | AUC of viability dose-response curve (P12-Ichikawa; [1]) | AUC of viability dose-response curve (SEM cells; HPLM + 10% dialyzed FBS) | AUC of viability dose-response curve (SEM cells; RPMI 5 mM glucose + 10% FBS) | AUC of viability dose-response curve (SEM cells; [1]) | AUC of viability dose-response curve (NOMO1; HPLM + 10% dialyzed FBS) | AUC of viability dose-response curve (NOMO1; RPMI 5 mM glucose + 10% FBS) | AUC of viability dose-response curve (NOMO1; [1]) |
| --- | --- | --- | --- | --- | --- | --- | --- | --- | --- |
| COc1cc(NCc2ccc3nc(N)nc(N)c3c2C)cc(OC)c1OC | 346 | 383 | 350 | 345 | 370 | 336 | 347 | 397 | 380 |
| C[C@@H]1CC[C@@]2(CC[C@]3(C)\C(=C/C[C@@H]4[C@@]5(C)CC[C@H](O)C(C)(C)[C@@H]5CC[C@@]34C)[C@@H]2[C@H]1C)C(O)=O | 462 | 469 | 458 | 465 | 467 | 456 | 477 | 461 | 468 |
| CC(C)c1onc(-c2c(Cl)cccc2Cl)c1COc1ccc(/C=C/c2cccc(C(=O)O)c2)c(Cl)c1 | 450 | 445 | 452 | 466 | 465 | 443 | 454 | 447 | 466 |
| CC1(C)CC\C2=C(/O1)C3=C(C=CC=C3)C(=O)C2=O | 449 | 447 | 450 | 437 | 436 | 401 | 449 | 446 | 451 |
| Oc1cc(-c2nc(-c3ccccc3)[nH]c2-c2ccncc2)ccc1Cl | 438 | 424 | 419 | 464 | 461 | 467 | 394 | 451 | 420 |
| CC1(C)SCCN([S+](=O)([O-])c2ccc(OCC#CCO)cc2)[C@H]1C(=O)NO | 456 | 454 | 438 | 449 | 413 | 439 | 462 | 437 | 450 |
| CC(C(C)N1CC(=O)NC(=O)C1)N1CC(=O)NC(=O)C1 (configuration not stated) | 454 | 425 | 447 | 422 | 351 | 401 | 459 | 468 | 471 |
| Cc1ccc([C@@H]2O[C@H](CO)[C@@H](O)[C@H](O)[C@H]2O)cc1Cc1ccc(-c2ccc(F)cc2)s1 | 465 | 467 | 465 | 475 | 467 | 468 | 467 | 468 | 472 |
| Nc1n[nH]c2nnc(-c3c(-c4ccccc4)nn4ccccc34)cc12 | 404 | 403 | 429 | 446 | 449 | 455 | 378 | 354 | 379 |
| COc1ccc(CCC(=O)c2c(O)cc(O[C@@H]3O[C@H](CO)[C@@H](O)[C@H](O)[C@H]3O[C@@H]3O[C@@H](C)[C@H](O)[C@@H](O)[C@H]3O)cc2O)cc1O | 458 | 442 | 463 | 464 | 455 | 465 | 413 | 426 | 425 |
| COc1cc2c(cc1OC)[C@@H]1Cc3ccc(OC)c(OC)c3CN1CC2 | 467 | 444 | 461 | 473 | 449 | 477 | 452 | 458 | 464 |
| Cc1ccc(C(=O)Nc2cccc(C(F)(F)F)c2)cc1Nc1nc(-c2cccnc2)nc2c1cnn2C | 421 | 393 | 416 | 362 | 411 | 407 | 392 | 396 | 409 |
| CCCN[C@H]1CCc2nc(N)sc2C1 | 462 | 430 | 450 | 453 | 442 | 442 | 447 | 434 | 466 |
| CCNC(=O)CCC/C=C\C[C@@H]1[C@@H](/C=C/C(O)CCc2ccccc2)[C@@H](O)C[C@@H]1O (some centres not stated) | 448 | 453 | 431 | 466 | 473 | 461 | 460 | 456 | 459 |
| CN(CCOc1ccc(CC2SC(=O)NC2=O)cc1)c1ccccn1 (configuration not stated) | 467 | 465 | 462 | 469 | 433 | 466 | 442 | 474 | 443 |
| NC1=NC(=O)N2CC12 (configuration not stated) | 400 | 369 | 349 | 312 | 314 | 281 | 367 | 350 | 352 |
| O=C(/C=C/c1ccc(/C=C/C(=O)Nc2ccc(C3=NCCN3)cc2)cc1)Nc1ccc(C2=NCCN2)cc1 | 467 | 467 | 473 | 460 | 448 | 459 | 456 | 439 | 464 |
| CN(C)c1nc(Cc2ccc(NC(=O)c3ccc(C(F)(F)F)cc3)cc2)nc(N(C)C)c1CC(=O)O | 471 | 465 | 461 | 473 | 445 | 470 | 452 | 432 | 451 |
